# Data as given in patent US20200024278A1, “COMPOSITION COMPRISING ANTIBIOTIC COMPOUND AND AN HETEROCYCLIC COMPOUND AND THEIR USE IN PREVENTING OR TREATING BACTERIAL INFECTIONS” (MUTABILIS, priority 2016, published 2020).
# Read-outs that look alike come from different tables or passages of the source.
# Columns and labels:
# Assay in all cases: MIC, broth microdilution (CLSI), substance alone or ATB combined with compound at 4 or 8 μg/mL
# KPN BAA-1898 = type: cell-based, K. pneumoniae; conditions: KPN BAA-1898
# How it was run: (§1)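 Potentiation format: antibiotic dilution series run with test compound held at 4 or 8 μg/mL, alongside compound-alone MICs. Broth microdilution per CLSI in ca-MHB, 16-20 h at 35° C.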
# KPN 6299 = type: cell-based, K. pneumoniae
# How it was run: as §1
# PAE UFR48 = type: cell-based, P. aeruginosa; conditions: PAE UFR48; for MIC: Pseudomonas aeruginosa
# How it was run: as §1
# PAE 105250 = type: cell-based, P. aeruginosa; conditions: PAE 105250
# How it was run: as §1
# PAE UFR90 = type: cell-based, P. aeruginosa; conditions: PAE UFR90; for MIC: Pseudomonas aeruginosa
# How it was run: as §1
# SAU 29213 = type: cell-based, S. aureus; conditions: SAU 29213
# How it was run: as §1
# [1] = antibiotic alone, read-out: MIC ATB alone
structure (smiles),measurement,setting,value
"NCC[C@H](O)C(=O)N[C@@H]1C[C@H](N)[C@@H](O[C@H]2O[C@H](CN)[C@@H](O)[C@H](O)[C@H]2O)[C@H](O)[C@H]1O[C@H]1O[C@H](CO)[C@@H](O)[C@H](N)[C@H]1O [AN, Amikacin, reference compound]",MIC ATB combined with Example 13 @8 μg/ml,KPN BAA-1898; with Example 13 at 8 μg/ml,0.25 µg/mL
same,MIC ATB combined with Example 14 @8 μg/ml,KPN BAA-1898; with Example 14 at 8 μg/ml,<0.031 µg/mL
same,MIC ATB combined with Example 15 @4 μgml,KPN BAA-1898; with Example 15 at 4 μg/ml,<=0.031 μg/mL
same,MIC ATB combined with Example 16 @4 μg/ml,KPN BAA-1898; with Example 16 at 4 μg/ml,<0.031 µg/mL
same,MIC,"KPN BAA-1898; Klebsiella pneumoniae, BAA1898, antibiotic alone, read-out: MIC ATB alone",1 µg/mL
same,MIC,"KPN 6299; Klebsiella pneumoniae, antibiotic alone, read-out: MIC ATB alone",16 µg/mL
same,MIC ATB combined with Example 1 @8 μg/ml,KPN 6299; with Example 1 @8 μg/ml,16 µg/mL
same,MIC ATB combined with Example 1 @8 μg/ml,KPN 6299; with Example 1 at 8 μg/ml,16 µg/mL
same,MIC ATB combined with Example 7 @8 μgml,KPN 6299; with Example 7 at 8 μg/ml,2 µg/mL
same,MIC ATB combined with Example 9 @4 μg/ml,KPN 6299; with Example 9 @4 μg/ml,<0.031 µg/mL
same,MIC ATB combined with Example 9 @4 μg/ml,KPN 6299; with Example 9 at 4 μg/ml,<0.031 µg/mL
same,MIC ATB combined with Example 11 @8 μg/ml,KPN 6299; with Example 11 at 8 μg/ml,<0.031 µg/mL
same,MIC ATB combined with Example 12 @8 μg/ml,KPN 6299; with Example 12 at 8 μg/ml,<0.031 µg/mL
same,MIC ATB combined with Example 13 @8 μg/ml,KPN 6299; with Example 13 at 8 μg/ml,4 µg/mL
same,MIC ATB combined with Example 14 @8 μg/ml,KPN 6299; with Example 14 at 8 μg/ml,<0.031 µg/mL
same,MIC ATB combined with Example 15 @4 μgml,KPN 6299; with Example 15 at 4 μg/ml,<=0.031 μg/mL
same,MIC ATB combined with Example 16 @4 μg/ml,KPN 6299; with Example 16 at 4 μg/ml,<0.031 µg/mL
same,MIC ATB combined with Example 1 @8 μg/ml,PAE UFR48; with Example 1 @8 μg/ml,<0.031 µg/mL
same,MIC ATB combined with Example 1 @8 μg/ml,PAE UFR48; with Example 1 at 8 μg/ml,<0.031 µg/mL
same,MIC ATB combined with Example 7 @8 μgml,PAE UFR48; with Example 7 at 8 μg/ml,32 µg/mL
same,MIC ATB combined with Example 9 @4 μg/ml,PAE UFR48; with Example 9 @4 μg/ml,32 µg/mL
same,MIC ATB combined with Example 9 @4 μg/ml,PAE UFR48; with Example 9 at 4 μg/ml,32 µg/mL
same,MIC ATB combined with Example 11 @8 μg/ml,PAE UFR48; with Example 11 at 8 μg/ml,>32 µg/mL
same,MIC ATB combined with Example 12 @8 μg/ml,PAE UFR48; with Example 12 at 8 μg/ml,32 µg/mL
same,MIC ATB combined with Example 13 @8 μg/ml,PAE UFR48; with Example 13 at 8 μg/ml,32 µg/mL
same,MIC ATB combined with Example 14 @8 μg/ml,PAE UFR48; with Example 14 at 8 μg/ml,32 µg/mL
same,MIC ATB combined with Example 15 @4 μgml,PAE UFR48; with Example 15 at 4 μg/ml,>32 µg/mL
same,MIC ATB combined with Example 16 @4 μg/ml,PAE UFR48; with Example 16 at 4 μg/ml,32 µg/mL
same,MIC,PAE UFR48; [1],32 µg/mL
same,MIC,"PAE UFR48; substance alone, read-out: MIC",32 µg/mL
same,MIC ATB combined with Example 1 @8 μg/ml,PAE 105250; with Example 1 @8 μg/ml,<0.031 µg/mL
same,MIC ATB combined with Example 1 @8 μg/ml,PAE 105250; with Example 1 at 8 μg/ml,<0.031 µg/mL
same,MIC ATB combined with Example 7 @8 μgml,PAE 105250; with Example 7 at 8 μg/ml,2 µg/mL
same,MIC ATB combined with Example 9 @4 μg/ml,PAE 105250; with Example 9 @4 μg/ml,2 µg/mL
same,MIC ATB combined with Example 9 @4 μg/ml,PAE 105250; with Example 9 at 4 μg/ml,2 µg/mL
same,MIC ATB combined with Example 11 @8 μg/ml,PAE 105250; with Example 11 at 8 μg/ml,2 µg/mL
same,MIC ATB combined with Example 12 @8 μg/ml,PAE 105250; with Example 12 at 8 μg/ml,2 µg/mL
same,MIC ATB combined with Example 13 @8 μg/ml,PAE 105250; with Example 13 at 8 μg/ml,2 µg/mL
same,MIC ATB combined with Example 14 @8 μg/ml,PAE 105250; with Example 14 at 8 μg/ml,1 µg/mL
same,MIC ATB combined with Example 15 @4 μgml,PAE 105250; with Example 15 at 4 μg/ml,2 µg/mL
same,MIC ATB combined with Example 16 @4 μg/ml,PAE 105250; with Example 16 at 4 μg/ml,1 µg/mL
same,MIC,"PAE 105250; Pseudomonas aeruginosa, antibiotic alone, read-out: MIC ATB alone",2 µg/mL
same,MIC ATB combined with Example 1 @8 μg/ml,PAE UFR90; with Example 1 @8 μg/ml,<0.031 µg/mL
same,MIC ATB combined with Example 1 @8 μg/ml,PAE UFR90; with Example 1 at 8 μg/ml,<0.031 µg/mL
same,MIC ATB combined with Example 7 @8 μgml,PAE UFR90; with Example 7 at 8 μg/ml,2 µg/mL
same,MIC ATB combined with Example 9 @4 μg/ml,PAE UFR90; with Example 9 @4 μg/ml,2 µg/mL
same,MIC ATB combined with Example 9 @4 μg/ml,PAE UFR90; with Example 9 at 4 μg/ml,2 µg/mL
same,MIC ATB combined with Example 11 @8 μg/ml,PAE UFR90; with Example 11 at 8 μg/ml,2 µg/mL
same,MIC ATB combined with Example 12 @8 μg/ml,PAE UFR90; with Example 12 at 8 μg/ml,2 µg/mL
same,MIC ATB combined with Example 13 @8 μg/ml,PAE UFR90; with Example 13 at 8 μg/ml,2 µg/mL
same,MIC ATB combined with Example 14 @8 μg/ml,PAE UFR90; with Example 14 at 8 μg/ml,2 µg/mL
same,MIC ATB combined with Example 15 @4 μgml,PAE UFR90; with Example 15 at 4 μg/ml,2 µg/mL
same,MIC ATB combined with Example 16 @4 μg/ml,PAE UFR90; with Example 16 at 4 μg/ml,2 µg/mL
same,MIC,PAE UFR90; [1],2 µg/mL
same,MIC,"PAE UFR90; substance alone, read-out: MIC",2 µg/mL
same,MIC ATB combined with Example 1 @8 μg/ml,SAU 29213; with Example 1 @8 μg/ml,4 µg/mL
same,MIC ATB combined with Example 1 @8 μg/ml,SAU 29213; with Example 1 at 8 μg/ml,4 µg/mL
same,MIC ATB combined with Example 7 @8 μgml,SAU 29213; with Example 7 at 8 μg/ml,2 µg/mL
same,MIC ATB combined with Example 9 @4 μg/ml,SAU 29213; with Example 9 @4 μg/ml,<0.031 µg/mL
same,MIC ATB combined with Example 9 @4 μg/ml,SAU 29213; with Example 9 at 4 μg/ml,<0.031 µg/mL
same,MIC ATB combined with Example 11 @8 μg/ml,SAU 29213; with Example 11 at 8 μg/ml,<0.031 µg/mL
same,MIC ATB combined with Example 12 @8 μg/ml,SAU 29213; with Example 12 at 8 μg/ml,<0.031 µg/mL
same,MIC ATB combined with Example 13 @8 μg/ml,SAU 29213; with Example 13 at 8 μg/ml,4 µg/mL
same,MIC ATB combined with Example 14 @8 μg/ml,SAU 29213; with Example 14 at 8 μg/ml,<0.031 µg/mL
same,MIC ATB combined with Example 15 @4 μgml,SAU 29213; with Example 15 at 4 μg/ml,<0.031 µg/mL
same,MIC ATB combined with Example 16 @4 μg/ml,SAU 29213; with Example 16 at 4 μg/ml,<0.031 µg/mL
same,MIC,"SAU 29213; Staphylococcus aureus, antibiotic alone, read-out: MIC ATB alone",2 µg/mL
